Source: PMC9960821, “Evaluation of Rhenium and Technetium-99m Complexes Bearing Quinazoline Derivatives as Potential EGFR Agents” (Molecules, 2023)

Tests used:
[1] = Stability of 99mTc complexes in reaction mixture and after isolation in PBS (RP-HPLC); type: physicochemical
Description: The stability of complexes 5b and 7b was studied in their reaction mixture and after isolation by HPLC for up to 24 h.
Stability of ^99mTc complexes in the reaction mixture: Samples of the ^99mTc complexes’ reaction mixture were stored at room temperature for up to 24 h. At 1, 6, and 24 h intervals, 100 μL of each sample was removed and analyzed by RP-HPLC.
Stability of isolated ^99mTc complexes: Purification and isolation of 5b and 7b complexes were performed by injection of the reaction mixture into RP-HPLC and isolation of the eluted compounds’ peaks, corresponding to the elution time of each complex. Followingly, 0.1 M PBS buffer solution (900 µL) was added to a vial containing 100 µL (50–120 MBq) of the isolated technetium-99m complex. The sample was incubated at 37 °C for up to 24 h and analyzed by RP-HPLC at 1, 6, and 24 h intervals.

[2] = Lipophilicity, shake-flask distribution coefficient; type: physicochemical; conditions: n-octanol/0.1 M phosphate buffer pH 7.4
Description: The pharmacokinetic profile of the studied compounds could be affected by their lipophilicity, expressed as the logarithm of the distribution coefficient (log Do/w). The lipophilicity of complexes 5b and 7b was determined in physiological conditions (n-octanol/0.1 M phosphate buffer pH 7.4). […] The presence of the pyridine ring in the chemical structure of complex […] increases the log D7.4 value, as expected.
The distribution coefficient of the 5b and 7b complexes was determined with the shake-flask method. The RP-HPLC isolated ^99mTc complexes (20 μL, ~75 kBq) were mixed with 2 mL of 1-octanol and 2 mL of phosphate buffer solution (PBS, 0.1 M, pH 7.4) in a centrifuge tube. The mixture was vortexed at room temperature for 2 min and centrifuged at 5000 rpm for 10 min. The radioactivity of each phase (200 μL) was counted in a gamma counter. The distribution coefficient was calculated by dividing the cpm/mL in the 1-octanol phase by those in the buffer, and the results were expressed as logD7.4. Each experiment was run in triplicate.

%RCP in PBS for 24 h ([1]; 0.1 M PBS, 37 °C, 24 h): 99 ± 2%
Stability in reaction mixture and after isolation by HPLC ([1]; up to 24 h, room temperature or 37 °C): No decomposition
log D7.4 [2]: 3.27 ± 0.25
SMILES: O=C([O-])CN(CCCCCC(=O)Nc1ccc2ncnc(Nc3cccc(Br)c3)c2c1)Cc1ccccn1.[99Tc+].[C-]#[O+].[C-]#[O+].[C-]#[O+] [Compound 5b, fac-[^99mTc(NNO)(CO)3]]
